Experimental data from patent US12233088B2 (Alexion Pharmaceuticals, Inc., priority 2017, dated 2025).

Tests used:
[1] = system: patients with WD
Description: Example 1 was an open-label multicenter single-arm phase 2 trial conducted in 28 adults with a diagnosis of WD established by a Leipzig score of ≥4.
Data were collected from the first 72 weeks of the extension period for the following parameters: (a) NCC levels, corrected for bound copper contained in tetrathiomolybdate-copper-albumin complexes (NCCcorrected); (b) Liver status, measured using standard laboratory measures and also by Model for End-Stage Liver Disease (MELD) score (based on bilirubin, creatinine and international normalized ratio [INR]); (c) Patient-reported disability using Unified Wilson Disease Rating Scale (UWDRS) part II, and neurological status using UWDRS part III; and (d) Safety is shown below.

[2] = system: patients with Wilson disease
Procedure: Changes in neurological status were characterized using the Unified Wilson's Disease Rating Scale (UWDRS).
Patients were excluded if they had decompensated hepatic cirrhosis, a model for end-stage liver disease (MELD) score >11, or a modified Nazer score (revised King's score)>6.
The 24-week, phase 2, open-label study was conducted in Europe and the USA. […] Thereafter, dosing was tailored according to laboratory (including NCC concentrations adjusted for plasma molybdenum) and clinical assessments (maximum daily dose administered: 120 mg).
Disability and neurological status were assessed using parts II and III, respectively, of the UWDRS at baseline and weeks 4, 8, 12, 18, and 24: Disability (part II): 10-item patient-reported questionnaire (range for total scores: 0-40; higher scores indicate greater disability). Neurological status (part III): 23-item clinician-assessed score (range for total scores: 0-143; higher scores indicate worse neurological status). Data (total scores for UWDRS parts II and III, and AEs) are summarized briefly for context in Results.
UWDRS neurological status scores at baseline, week 24, and change from baseline to week 24 were calculated for: any individual item experienced by at least 50% of patients; and for item groups (i.e. collections of individual items that could be considered to represent particular patient phenotypes [Table 11]).
Least-squares mean (standard error [SE], 95% confidence intervals [CIs]) values were calculated for changes from baseline for UWDRS total scores using a mixed-model repeated-measures analysis; significance was assessed using two-sided p values. To investigate and quantify the relationship between UWDRS total scores for parts II and III, a random coefficients analysis was conducted using each patient's scores from all study visits. Summary statistics were calculated for other outcomes.

[3] = of 22 patients, baseline to week 24

C[N+](C)(C)CCO.C[N+](C)(C)CCO.[SH-].[SH-].[S]=[Mo]=[S] [WTX101, bis-choline tetrathiomolybdate]
Relationship to the study drug as deemed by the investigator: Acute lower back pain (week 37) ([1]; SAE after week 24): Unrelated
Relationship to the study drug as deemed by the investigator: Dizziness (week 113) ([1]; SAE after week 24): Possible
Relationship to the study drug as deemed by the investigator: Loss of consciousness (week 113) ([1]; SAE after week 24): Possible
Relationship to the study drug as deemed by the investigator: Mania (week 38) ([1]; SAE after week 24): Unlikely
Relationship to the study drug as deemed by the investigator: Neutropenia (week 36) ([1]; SAE after week 24): Possible
Relationship to the study drug as deemed by the investigator: Exacerbation of WD (week 46) ([1]; SAE after week 24, likely due to disease progression): Possible
SAE Acute lower back pain (week 37), number of patients ([1]; after week 24): 1
SAE Dizziness (week 113), number of patients ([1]; after week 24): 1
SAE Exacerbation of WD (week 46), number of patients ([1]; after week 24): 1
SAE Loss of consciousness (week 113), number of patients ([1]; after week 24): 1
SAE Mania (week 38), number of patients ([1]; after week 24): 1
number of patients with ≥1 SAEs ([1]; after week 24): 5 patients
number of serious adverse events ([1]; after week 24): 6 events in
SAE Neutropenia (week 36), number of patients ([1]; after week 24, grade 1, normalized with dose reduction): 1
INR, mean ± standard error ([1]; beginning of extension period (week 24), N=22): 1.06 ± 0.0
NCCcorrected, mean ± standard error ([1]; beginning of extension period (week 24), N=22, baseline 3.6 ± 0.4): 0.9 ± 0.2 µM
UWDRS part II score, mean ± standard error ([1]; beginning of extension period (week 24), N=22, baseline 6.6 ± 1.9): 4.1 ± 1.8
MELD score, mean ± standard error ([1]; beginning of extension period (week 24), N=22, baseline 7.7 ± 0.4): 7.2 ± 0.4
UWDRS part III score, mean ± standard error ([1]; beginning of extension period (week 24), N=22, baseline 22.8 ± 4.0): 16.6 ± 3.9
Albumin, mean ± standard error ([1]; beginning of extension period (week 24), N=22, baseline 39.2 ± 1.0): 40.9 ± 0.7 g/L
ALT, mean ± standard error ([1]; beginning of extension period (week 24), N=22, baseline 42.6 ± 6.2): 36.8 ± 3.9 U/L
AEs considered unrelated or unlikely related to therapy ([1]; between week 24 and 72): 89%
AEs mild or moderate ([1]; between week 24 and 72): 89%
mean INR, albumin, ALT levels and MELD score (liver function) ([1]; between week 24 and week 72): improved or unchanged
reversible ALT elevations requiring dose adjustments ([1]; extension period): not observed
hemoglobin measurements below the normal range ([1]; over the follow-up period): 5.2%
patients with low hemoglobin at some point ([1]; over the follow-up period, none below 100 g/L): 7 patients
mean UWDRS disability score and neurological signs score ([1]; week 24 to 72): continued improvements
subjects with neutropenia accompanied by mild anemia and low NCC levels ([1]; week 36 and 72, responded to dose reduction): Two
decrease in number of reported AEs and SAEs ([1]; weeks 1-24 to weeks 25-72): around 50%
individuals with deterioration in dystonia item group score ([2]; baseline to week 24): three
individuals with deterioration in gait item group score ([2]; baseline to week 24): six
individuals with deterioration in rigidity item group score ([2]; baseline to week 24): four
mean improvement in UWDRS part III item group total tremor ([2]; baseline to week 24, SD 61.7): 34.2%
mean improvement in UWDRS part III item group limb agility (dexterity) and coordination ([2]; baseline to week 24, SD 72.2): 29.2%
overall deterioration in UWDRS part III item group gait ([2]; baseline to week 24, SD 77.8): 4.2%
overall deterioration in UWDRS part III item group dystonia ([2]; baseline to week 24, SD 135.2): 15.0%
overall deterioration in UWDRS part III item group rigidity ([2]; baseline to week 24, SD 169.6): 26.9%
patients with any deterioration in limb agility and coordination item group score [2, 3]: three
patients with any deterioration in tremor item group score [2, 3]: four
mean improvement (% change) in UWDRS part III item alternating hand movements ([2]; over 24 weeks): 35.0%
mean improvement (% change) in UWDRS part III item handwriting ([2]; over 24 weeks): 51.4%
mean improvement (% change) in UWDRS part III item leg agility ([2]; over 24 weeks): 40.8%
mean improvement (% change) in UWDRS part III item postural arm tremor ([2]; over 24 weeks): 39.5%
